Data reported in paper PMC3306180 (Journal of Medicinal Chemistry, 2012).
Read-outs that look alike come from different tables or passages of the source.

Assays:
[1] = test system: CRL-8155 (lymphocytic) cells; test: Human cell growth inhibition assay, CRL-8155; details: concentrations up to 10 μM
HL-60 (neutrophil) cells = test: Human cell growth inhibition assay, HL-60; details: concentrations up to 10 μM
human kinases = format: biochemical
T. gondii = T. gondii cell proliferation; format: cell-based, Toxoplasma gondii
[2] = generally observed, human kinase panel of Table 4

| Structure (SMILES) | inhibition of cell growth, CRL-8155 [1] | inhibition of cell growth, HL-60 (HL-60 (neutrophil) cells) | differences between IC50 values for TgCDPK1 over human kinases (human kinases; [2]) [fold] | differences between IC50 values for TgCDPK1 over human kinases (human kinases) [fold] | block of T. gondii cell invasion/proliferation (T. gondii) |
| --- | --- | --- | --- | --- | --- |
| COc1ccc2cc(-c3nn(C(C)C)c4ncnc(N)c34)ccc2c1.Cl [Compound 14a] | no inhibition of cell growth | no inhibition of cell growth | – | – | – |
| CCOc1ccc2cc(-c3nn(CC4CCN(C)CC4)c4ncnc(N)c34)ccc2c1.Cl [Compound 15o] | – | – | > 1000 | – | – |
| CCOc1ccc2cc(-c3nn(CC4CCNCC4)c4ncnc(N)c34)ccc2n1.Cl [Compound 16n] | no inhibition of cell growth | no inhibition of cell growth | > 1000 | – | – |
| CCOc1ccc2cc(-c3nn(CC4CCNCC4)c4ncnc(N)c34)ccc2c1.Cl [Compound 15n] | no inhibition of cell growth | no inhibition of cell growth | – | > 1000 | – |
| Cl.Nc1ncnc2c1cnn2CC1CCNCC1 [Compound 1n] | – | – | – | – | do not block T. gondii cell invasion/proliferation |
| CCOc1ccc2cc(-c3nn(C4CCN(C)CC4)c4ncnc(N)c34)ccc2c1.Cl [Compound 15h] | no inhibition of cell growth | no inhibition of cell growth | > 1000 | – | – |
| CC(C)(C)n1ncc2c(N)ncnc21.Cl [Compound 1b] | – | – | – | – | do not block T. gondii cell invasion/proliferation |
| COc1ccc2cc(-c3nn(CC4CCNCC4)c4ncnc(N)c34)ccc2c1.Cl [Compound 14n] | no inhibition of cell growth | no inhibition of cell growth | > 1000 | – | – |
